Measured values: US5677322A, “Maillard reaction inhibitor” (Otsuka Pharmaceutical Co., Ltd., priority 1993, dated 1997)
Each block holds one molecule with its values, some of them ahead of it.

System: Lysozyme
Experiment: Inhibition of Maillard reaction: suppression of lysozyme dimer formation (lysozyme + fructose, SDS-PAGE)
Type: biochemical
Details: inhibition ratio of test compound to aminoguanidine (positive control); lysozyme 10 mg/ml, fructose 100 mM, 0.2M sodium phosphate pH 7.4, 37° C., 3 days; dimer amount by SDS-PAGE
Description: Lysozyme and fructose were dissolved in a buffer solution of 0.2M sodium phosphate (pH 7.4) to respectively give concentrations of 10 mg/ml and 100 mM. After incubating at 37° C. for 3 days, a definite amount of the mixture was taken out and electrophoresed with the use of SDS-PAGE. After the completion of the electrophoresis, the gel was stained with 0.2% Coomassie Brilliant Blue R-250 and the amount of the dimer thus formed was determined.
Each of the test compounds was added before the initiation of the incubation and the effect of suppressing the formation of the dimer was examined at various concentrations, whereby the IC50 value was obtained. As a positive control, aminoguanidine, which is a known glycation inhibitor, was employed and the inhibition ratio of the test compound to aminoguanidine (IC50 of aminoguanidine/IC50 of test compound) was calculated.

Molecule: CC(C)=NN=C1NC(=O)C(CC(=O)Nc2ccccc2)S1 (stereo not shown) [Test compound 32, 2-isopropylidenehydrazono-5-(N-phenylcarbamoylmethyl)thiazolidin-4-one]
IC50 of aminoguanidine/IC50 of test compound: 55

Molecule: 2-Isopropylidenehydrazono-5-{N-[1-methoxycarbonyl-2-(3-indolyl)ethyl]carbamoylmethyl}thiazolidin-4-one [Test compound 102]
IC50 of aminoguanidine/IC50 of test compound: 4.3

Molecule: 2-Isopropylidenehydrazono-5-[N-(2-methyl-5-methoxycarbonylphenyl)carbamoylmethyl]thiazolidin-4-one [Test compound 84]
IC50 of aminoguanidine/IC50 of test compound: 3.5

Molecule: 5-[N-(3-ethoxycarbonylphenyl)carbamoylmethyl]-2-isopropylidenehydrazonothiazolidin-4-one [Test compound 105]
IC50 of aminoguanidine/IC50 of test compound: 4.2

Molecule: 5-(N-isopropylcarbamoylmethyl)-2-isopropylidenehydrazonothiazolidin-4-one [Test compound 31]
IC50 of aminoguanidine/IC50 of test compound: 0.6

Molecule: 5-[N-(4-carboxyphenyl)carbamoylmethyl]-2-isopropylidenehydrazonothiazolidin-4-one [Test compound 16]
IC50 of aminoguanidine/IC50 of test compound: 3.1

Molecule: 5-(4-Benzyloxybenzyl)-2-isopropylidenehydrazonothiazolidin-4-one [Test compound 12]
IC50 of aminoguanidine/IC50 of test compound: 4.4

Molecule: 5-[N-(4-bromophenyl)carbamoylmethyl]-2-isopropylidenehydrazonothiazolidin- 4-one [Test compound 56]
IC50 of aminoguanidine/IC50 of test compound: 10.2

More lines, now with the values ahead:

IC50 of aminoguanidine/IC50 of test compound: 6.1
Molecule: COC(=O)c1c(F)cccc1NC(=O)CC1SC(=NN=C(C)C)NC1=O (stereo not shown) [Test compound 118, 5-[N-(3-fluoro-2-methoxycarbonylphenyl)carbamoylmethyl]-2-isopropylidenehydrazonothiazolidin-4-one]

IC50 of aminoguanidine/IC50 of test compound: 4.0
Molecule: CC(C)=NN=C1NC(=O)C(Cc2c[nH]cn2)N1 (stereo not shown) [Test compound 78, 5-(4-Imidazolylmethyl)-2-isopropylidenehydrazonoimidazolidin-4-one]

IC50 of aminoguanidine/IC50 of test compound: 2.8
Molecule: 2-Isopropylidenehydrazono-5(R)-(N-phenylcarbamoylmethyl)thiazolidin-4-one [Test compound 109]

IC50 of aminoguanidine/IC50 of test compound: 5.4
Molecule: COC(=O)CC1NC(=NN=C(C)C)NC1=O (stereo not shown) [Test compound 43, 2-Isopropylidenehydrazono-5-methoxycarbonylmethylimidazolidin-4-one]

IC50 of aminoguanidine/IC50 of test compound: 0.8
Molecule: CC(C)=NN=C1NC(=O)C(Cc2ccc(OCC3CCCCC3)cc2)N1 (stereo not shown) [Test compound 35, 5-[4-(Cyclohexylmethyloxy)benzyl]-2-isopropylidenehydrazonoimidazolidin-4-one]

IC50 of aminoguanidine/IC50 of test compound: 4.5
Molecule: CC(C)=NN=C1NC(=O)C(Cc2c[nH]c3ccc(O)cc23)N1 (stereo not shown) [Test compound 41, 5-(5-Hydroxy-3-indolylmethyl)-2-isopropylidenehydrazonoimidazolidin-4-one]

IC50 of aminoguanidine/IC50 of test compound: 26
Molecule: COC(=O)c1ccccc1NC(=O)CC1SC(=NN=C(C)C)NC1=O (stereo not shown) [Test compound 93, 2-Isopropylidenehydrazono-5-[N-(2-methoxycarbonylphenyl)carbamoylmethyl]thiazolidin-4-one]

IC50 of aminoguanidine/IC50 of test compound: 3.1
Molecule: CC(C)=NN=C1NC(=O)C(CCC(=O)Nc2ccccc2)N1 (stereo not shown) [Test compound 80, 2-Isopropylidenehydrazono-5-[2-(N-phenylcarbamoyl)ethyl]imidazolidin-4-one]

IC50 of aminoguanidine/IC50 of test compound: 36
Molecule: CC(C)=NN=C1NC(=O)C(CC(=O)NCc2cccs2)S1 (stereo not shown) [Test compound 70, 2-isopropylidenehydrazono-5-[N-(2-thienylmethyl)carbamoylmethyl]thiazolidin-4-one]

IC50 of aminoguanidine/IC50 of test compound: 5.4
Molecule: COc1cc(NC(=O)CC2SC(=NN=C(C)C)NC2=O)c(C(=O)O)cc1OC (stereo not shown) [Test compound 114, 5-[N-(2-carboxy-4,5-dimethoxyphenyl)carbamoylmethyl]-2-isopropylidenehydrazonothiazolidin-4-one]

IC50 of aminoguanidine/IC50 of test compound: 4.8
Molecule: CC(C)=NN=C1NC(=O)C(CC(=O)O)N1 (stereo not shown) [Test compound 45, 5-Carboxymethyl-2-isopropylidenehydrazonoimidazolidin-4-one]
